Measured values from PubChem BioAssay AID1205 (EPA DSSTox, 2008).
Calls of active or inactive are those of the source.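 Rule for the calls: active = tumour findings in long-term animal cancer tests in more than one sex, species or organ; inactive = no tumour finding and more than one negative test.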 *1 amine or outer side, *2 acyl side, *3 side chain or, on linkers, in order; H or OH if unused. Where a SMILES comes first, the peptide text is derived from it. Bridges are numbered along the chain shown (N, C = ends). Roman numbers before positions name the chains, in order. [ ]: non-standard residue; d: D form. Actinocin(9to1) = Cc1c2oc3c(C)ccc(C(=O)[*:1])c3nc-2c(C(=O)[*:2])c(N)c1=O; NMeV = CN[C@H](C(=O)O)C(C)C; Sar = CNCC(=O)O

Test: DSSTox (CPDBAS) Carcinogenic Potency Database Summary MultiCellCall Results
Settings: animal carcinogenicity bioassays, multi-cell call summary
In short: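 Summary call drawn from chronic long-term cancer bioassays in rats, mice, hamsters, dogs and nonhuman primates, using the most positive result per sex-species. Score: multispecies=50, multisex=30, multisite=20, summed for combinations.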

With `O=C(O)C(Cl)(Cl)Cl` as the molecule, how does the outcome read?
Its outcome is “active; multisex active”.

Which outcome does the source give for `Cc1c(N)nc(C)c2c1[nH]c1ccccc12` here?
The outcome was “active; multisex active; multispecies active”.

For `CC(C)NCC(O)c1ccc2ccccc2c1` (stereo not given), which outcome is on record?
Its outcome is “inactive; multisex inactive”.

For `CC(=O)CN(CCO)N=O`, which outcome is on record?
The outcome was “active; multisite active; multispecies active”.

With `O=C(O)CCCC/C=C(\c1ccccc1)c1cccnc1` as the molecule, how does the outcome read?
Its outcome is “inactive; multisex inactive; multispecies inactive”.

With `C[C@@H]1Cc2c(Cl)cc(C(=O)N[C@@H](Cc3ccccc3)C(=O)O)c(O)c2C(=O)O1` as the molecule, how does the outcome read?
The outcome was “active; multisite active; multisex active; multispecies active”.

With `CCC(Br)(CC)C(=O)NC(N)=O` as the molecule, how does the outcome read?
The outcome was “inactive; multisex inactive; multispecies inactive”.

For `CCCCN(N)CCCC`, which outcome is on record?
The outcome was “active; multisite active; multisex active”.

Which outcome does the source give for `ClC1C2(Cl)C3C4C5OC5C5C4C1(Cl)C(Cl)(C53)C2(Cl)Cl` (stereo not given) here?
The outcome was “inactive; multisex inactive; multispecies inactive”.

For `CC[C@H]1OC(=O)[C@H](C)[C@@H](O[C@H]2C[C@@](C)(OC)[C@@H](O)[C@H](C)O2)[C@H](C)[C@@H](O[C@@H]2O[C@H](C)C[C@H](N(C)C)[C@H]2O)[C@](C)(O)C[C@@H](C)C(=O)[C@H](C)[C@@H](O)[C@]1(C)O`, which outcome is on record?
The outcome was “inactive; multisex inactive; multispecies inactive”.

Which outcome does the source give for `COc1ccc(CN(CCN(C)C)c2ccccn2)cc1` here?
Its outcome is “active; multisex active”.

For `Cn1c(=O)c2c(ncn2C)n(C)c1=O`, which outcome is on record?
The outcome was “inactive; multisex inactive; multispecies inactive”.

With `COc1cc2c(c3c1c(=O)c1ccccc1n3C)C=CC(C)(C)O2` as the molecule, how does the outcome read?
Its outcome is “active; multisite active; multisex active”.

Which outcome does the source give for `O=NN1CCCCC1C(=O)O` (stereo not given) here?
The outcome was “inactive; multisex inactive”.

Which outcome does the source give for `ClC(Cl)Cl` here?
The outcome was “active; multisite active; multisex active; multispecies active”.

With `O=c1ccc2ccccc2o1` as the molecule, how does the outcome read?
The outcome was “active; multisite active; multisex active; multispecies active”.

With `C=CBr` as the molecule, how does the outcome read?
The outcome was “active; multisite active; multisex active”.

Which outcome does the source give for `Cc1ccccc1[N+](=O)[O-]` here?
The outcome was “active; multisite active; multisex active; multispecies active”.

For `Nc1ccccc1C(=O)OC/C=C/c1ccccc1`, which outcome is on record?
The outcome was “active; multisite active; multisex active; multispecies active”.

For `COc1ccc(C(=O)/C(Br)=C\C(=O)O)cc1`, which outcome is on record?
The outcome was “active; multisite active; multisex active”.

Which outcome does the source give for `C=CCc1ccc2c(c1)OCO2` here?
Its outcome is “active; multisex active; multispecies active”.

Which outcome does the source give for `CN(N=O)C(N)=O` here?
The outcome was “active; multisite active; multispecies active”.

For `NCCNc1cccc2ccccc12`, which outcome is on record?
The outcome was “inactive; multisex inactive; multispecies inactive”.

With `Nc1nc(/C=C/c2ccc([N+](=O)[O-])o2)no1` as the molecule, how does the outcome read?
Its outcome is “active; multisite active; multisex active”.

With `O=[N+]([O-])/C=C/c1ccccc1` as the molecule, how does the outcome read?
Its outcome is “inactive; multisex inactive; multispecies inactive”.

With `C=Cc1ccccc1` as the molecule, how does the outcome read?
The outcome was “active; multisite active; multisex active; multispecies active”.

Which outcome does the source give for `OCC1CO1` (stereo not given) here?
Its outcome is “active; multisite active; multisex active; multispecies active”.

For `S=c1[nH]c2ccccc2s1`, which outcome is on record?
The outcome was “active; multisite active; multisex active”.

Which outcome does the source give for `Clc1ccc(C(c2ccc(Cl)cc2)C(Cl)Cl)cc1` here?
Its outcome is “active; multisite active; multisex active”.

For `CN(N=O)C(=O)N[C@@H]1[C@@H](O)[C@H](O)[C@@H](CO)O[C@@H]1O`, which outcome is on record?
Its outcome is “active; multisite active; multisex active; multispecies active”.

Which outcome does the source give for `CCOc1ccc2c(c1)C(C)=CC(C)(C)N2` here?
Its outcome is “inactive; multisex inactive”.

With `O=C(Nc1nc(-c2ccc([N+](=O)[O-])o2)cs1)C(F)(F)F` as the molecule, how does the outcome read?
The outcome was “active; multisite active; multispecies active”.

For `CC(I)C1OCC(CO)O1` (stereo not given), which outcome is on record?
The outcome was “active; multisite active; multisex active; multispecies active”.

Which outcome does the source give for `Nc1ccc(Cc2ccc(N)c(Cl)c2)cc1Cl` here?
Its outcome is “active; multisite active; multisex active; multispecies active”.

Which outcome does the source give for `NNc1nc(-c2ccc(N)cc2)cs1` here?
The outcome was “active; multisite active; multispecies active”.

With `CC(=O)Nc1ccc2c(c1)C(=O)c1ccccc1-2` as the molecule, how does the outcome read?
The outcome was “active; multisite active”.

For `c1ccc(N=Nc2ccccc2)cc1`, which outcome is on record?
The outcome was “active; multisite active; multisex active”.

With `CCCCC(CC)COC(=O)COc1ccc(Cl)cc1Cl` (stereo not given) as the molecule, how does the outcome read?
The outcome was “inactive; multisex inactive”.

Which outcome does the source give for `O=CNNc1nc(-c2ccc([N+](=O)[O-])o2)cs1` here?
The outcome was “active; multisite active; multisex active; multispecies active”.

Which outcome does the source give for `O=c1c(CO)c/c(=N/Nc2ccc(S(=O)(=O)O)c3ccccc23)c(=O)/c1=N/Nc1ccc(S(=O)(=O)O)c2ccccc12` here?
Its outcome is “inactive; multisex inactive”.

For `CC(Cl)Cl`, which outcome is on record?
Its outcome is “inactive; multisex inactive; multispecies inactive”.

With `CCC1(c2ccccc2)C(=O)N=C(O)NC1=O` (stereo not given) as the molecule, how does the outcome read?
Its outcome is “active; multisex active; multispecies active”.

Which outcome does the source give for `Cc1c(N)cccc1N` here?
The outcome was “inactive; multisex inactive; multispecies inactive”.

Which outcome does the source give for `CC(=O)Nc1nnc(-c2ccc([N+](=O)[O-])o2)s1` here?
The outcome was “active; multisite active; multispecies active”.

With `O=NN1CCOCC1` as the molecule, how does the outcome read?
Its outcome is “active; multisite active; multisex active; multispecies active”.

With `Cc1c2oc3c(C)ccc(C(=O)N[C@@H]4C(=O)N[C@H](C(C)C)C(=O)N5CCC[C@H]5C(=O)N(C)CC(=O)N(C)[C@@H](C(C)C)C(=O)O[C@@H]4C)c3nc-2c(C(=O)N[C@@H]2C(=O)N[C@H](C(C)C)C(=O)N3CCC[C@H]3C(=O)N(C)CC(=O)N(C)[C@@H](C(C)C)C(=O)O[C@@H]2C)c(N)c1=O` (I: T[dV]P[Sar][NMeV] / II: T[dV]P[Sar][NMeV]; ester I:1-I:C, II:1-II:C; linker I:N-II:N via Actinocin(9to1)) as the molecule, how does the outcome read?
The outcome was “active; multisex active”.

With `CC1(C)S[C@@H]2[C@H](NC(=O)COc3ccccc3)C(=O)N2[C@H]1C(=O)O` as the molecule, how does the outcome read?
The outcome was “inactive; multisex inactive; multispecies inactive”.

With `Oc1c(Cl)cc(Cl)c(Cl)c1Cc1c(O)c(Cl)cc(Cl)c1Cl` as the molecule, how does the outcome read?
The outcome was “inactive; multisex inactive; multispecies inactive”.

Which outcome does the source give for `CN=C(NC#N)NCCSCc1nc[nH]c1C` here?
Its outcome is “inactive; multisex inactive; multispecies inactive”.

Which outcome does the source give for `S=P(N1CC1)(N1CC1)N1CC1` here?
Its outcome is “active; multisite active; multisex active; multispecies active”.

With `Cc1ccc(N)cc1Cl` as the molecule, how does the outcome read?
Its outcome is “inactive; multisex inactive; multispecies inactive”.

For `[N-]=[N+]=O`, which outcome is on record?
Its outcome is “inactive; multisex inactive”.

With `NNCCc1ccccc1` as the molecule, how does the outcome read?
Its outcome is “active; multisite active”.

Which outcome does the source give for `O=P1(NCCCl)OCCCN1CCCl` (stereo not given) here?
The outcome was “active; multisite active; multisex active; multispecies active”.

For `CCNC(=S)NCC`, which outcome is on record?
Its outcome is “active; multisex active”.

With `CCC[CH2][Sn]([CH2]CCC)([CH2]CCC)[O][Sn]([CH2]CCC)([CH2]CCC)[CH2]CCC` as the molecule, how does the outcome read?
Its outcome is “inactive; multisex inactive”.

For `CCOCCc1c(-c2ccccc2)nc(N)n2ncnc12`, which outcome is on record?
Its outcome is “active; multisite active; multisex active”.

Which outcome does the source give for `O=C(O)[C@@H]1[C@H](C(=O)O)[C@@]2(Cl)C(Cl)=C(Cl)[C@]1(Cl)C2(Cl)Cl` here?
Its outcome is “active; multisite active; multisex active; multispecies active”.

For `Cc1ccccc1`, which outcome is on record?
Its outcome is “active; multisite active; multisex active”.

Which outcome does the source give for `CCCC/C=N/N(C)C=O` here?
The outcome was “active; multisite active; multisex active”.

With `O=C1O[C@@H](CN2CCOCC2)CN1/N=C/c1ccc([N+](=O)[O-])o1` as the molecule, how does the outcome read?
The outcome was “active; multisite active”.

With `N[C@@H](CS)C(=O)O` as the molecule, how does the outcome read?
The outcome was “inactive; multisex inactive”.

Which outcome does the source give for `COC(=O)C(C)(C)Oc1ccc(-c2ccc(Cl)cc2)cc1` here?
Its outcome is “active; multisite active; multisex active; multispecies active”.

Which outcome does the source give for `Cc1cc(C)nc(NS(=O)(=O)c2ccc(N)cc2)n1` here?
Its outcome is “active; multisex active”.

For `CCCCC(CC)COC(=O)c1ccccc1C(=O)OCC(CC)CCCC` (stereo not given), which outcome is on record?
The outcome was “active; multisex active; multispecies active”.

Which outcome does the source give for `OC[C@H]1O[C@@](CO)(O[C@H]2O[C@H](CO)[C@@H](O)[C@H](O)[C@H]2O)[C@@H](O)[C@@H]1O` here?
The outcome was “inactive; multisex inactive”.

For `CCN(CC)c1cc2oc3cc(=[N+](CC)CC)c(C)cc-3c(-c3ccc(S(=O)(=O)O)cc3S(=O)(=O)[O-])c2cc1C`, which outcome is on record?
Its outcome is “inactive; multisex inactive”.

Which outcome does the source give for `Clc1cc2c(c(Cl)c1Cl)Oc1c(cc(Cl)c(Cl)c1Cl)O2` here?
Its outcome is “active; multisex active; multispecies active”.

With `CCN(Cc1cccc(S(=O)(=O)O)c1)c1ccc(C(=C2C=CC(=[N+](CC)Cc3cccc(S(=O)(=O)[O-])c3)C=C2)c2ccccc2)cc1` as the molecule, how does the outcome read?
Its outcome is “active; multisite active; multisex active”.

For `CCn1cc(C(=O)O)c(=O)c2ccc(C)nc21`, which outcome is on record?
Its outcome is “active; multisite active; multisex active”.

With `CC(N)=O` as the molecule, how does the outcome read?
Its outcome is “active; multisite active; multisex active; multispecies active”.

Which outcome does the source give for `COC(=O)c1ccc(C(=O)OC)cc1` here?
The outcome was “inactive; multisex inactive; multispecies inactive”.

For `CCCCCCCCCCCCN=C(N)N`, which outcome is on record?
Its outcome is “inactive; multisex inactive”.

Which outcome does the source give for `CN1C2CC[C@@H]1CC(NC(=O)c1cc(Cl)cc3c1OC(C)(C)C3)C2` (stereo not given in full) here?
Its outcome is “inactive; multisex inactive”.

With `O=C(CCl)c1ccccc1` as the molecule, how does the outcome read?
Its outcome is “inactive; multisex inactive; multispecies inactive”.

Which outcome does the source give for `C/C(=C(\CCOC(=O)c1ccccc1)SC(=O)c1ccccc1)N(C=O)Cc1cnc(C)nc1N` here?
Its outcome is “inactive; multisex inactive”.

Which outcome does the source give for `C/C=C/C(=O)Oc1c(C(C)CCCCCC)cc([N+](=O)[O-])cc1[N+](=O)[O-]` (stereo not given) here?
Its outcome is “inactive; multisex inactive”.

For `OCc1ccco1`, which outcome is on record?
The outcome was “active; multisite active; multispecies active”.

Which outcome does the source give for `COP(=S)(OC)Oc1ccc(SC)c(C)c1` here?
The outcome was “inactive; multisex inactive; multispecies inactive”.

Which outcome does the source give for `O=C1CCCCC1` here?
The outcome was “inactive; multisex inactive; multispecies inactive”.

With `ClC1(Cl)C2(Cl)C3(Cl)C4(Cl)C(Cl)(Cl)C5(Cl)C3(Cl)C1(Cl)C5(Cl)C24Cl` (stereo not given) as the molecule, how does the outcome read?
Its outcome is “active; multisite active; multisex active; multispecies active”.

Which outcome does the source give for `CCCCN(CCCCO)N=O` here?
The outcome was “active; multisite active; multisex active”.

With `CC(C)COC(=O)c1ccc(O)cc1` as the molecule, how does the outcome read?
The outcome was “inactive; multisex inactive”.

With `Nc1ncn[nH]1` as the molecule, how does the outcome read?
Its outcome is “active; multisite active; multisex active; multispecies active”.

Which outcome does the source give for `F[B-](F)(F)F` here?
The outcome was “inactive; multisex inactive”.

Which outcome does the source give for `N=C1C=CC(=C(c2ccc(N)cc2)c2ccc(N)cc2)C=C1` here?
Its outcome is “active; multisite active; multisex active; multispecies active”.

Which outcome does the source give for `CCCCNN` here?
Its outcome is “active; multisex active”.

For `CC(=O)CN(CC(C)=O)N=O`, which outcome is on record?
The outcome was “active; multisite active; multisex active”.

Which outcome does the source give for `Oc1cccc(O)c1` here?
The outcome was “inactive; multisex inactive; multispecies inactive”.

Which outcome does the source give for `CC=O` here?
The outcome was “active; multisite active; multisex active; multispecies active”.
